One test has as its system Human primary T cells. The test can be described thus: IL-2 ELISA, human primary T cell, anti-CD3+CD28+ (whole cell assay). The format is cell-based. The settings on record: Homo sapiens, T-cell, 24 h, human primary T cells stimulated with anti-CD3 + anti-CD28, 24 hours. The method, then:
(§1) Human primary T cells were prepared as follows. Whole blood was obtained from a healthy volunteer, mixed 1:1 with PBS, layered on to Ficoll Hypaque (Amersham Pharmacia Biotech, Piscataway, N.J., Catalog #17-1440-03) in 2:1 blood/PBS:ficoll ratio and centrifuged for 30 minutes at 4° C. at 1750 rpm. The cells at the serum:ficoll interface were recovered and washed twice with 5 volumes of PBS. These freshly isolated human peripheral blood mononuclear cells were cultured in Yssel's medium containing 40 U/mL IL2 in a flask pre-coated with 1 μg/mL αCD3 and 5 μg/mL αCD28 (Anti-Human CD3, BD Pharmingen Catalog #555336, Anti-Human CD28, Beckman Coulter Catalog #IM1376). The cells were stimulated for 3-4 days, then transferred to a fresh flask and maintained in RPMI (RPMI-1640 with L-Glutamine; Mediatech, Inc., Herndon Va., cat. #10-040-CM) with 10% FBS and 40 U/mL IL-2. The primary T-cells were then washed twice with PBS to remove the IL-2.
Human primary T cells (100,000 cells per well) were pre-incubated with or without test compound in Yssel's medium for 1 hr at 37° C. Cells were then stimulated by transferring them to round-bottom 96-well plates pre-coated with 1 μg/ml μCD3 and 5 μg/ml μCD28. For counter assay, cells were instead stimulated by adding 8× stock solutions of PMA and ionomycin in Yssels (for final concentrations of 0.5 ng/ml PMA and 0.1 μM ionomycin, both from Calbiochem). Cells were incubated at 37° C. for 24 hours before 100 μL supernatants were harvested for quantification of IL-2 by ELISA using Human IL-2 Duoset ELISA Kit from R and D Systems, Cat. #DY202E.
as §1, with “Human primary T cell isolation and culture: Human primary” for “Human primary”, “for 30 min at 4°” for “for 30 minutes at 4°”, “at the serum: ficoll interface were” for “at the serum:ficoll interface were”
Primary T cell stimulation and IL2 ELISA: Human primary T cells (100,000 cells per well) were pre-incubated with or without test compound in Yssel's medium for 1 hr at 37° C. Cells were then stimulated by transferring them to round-bottom 96-well plates pre-coated with 1 μg/ml αCD3 and 5 μg/ml αCD28. For counter assay, cells were instead stimulated by adding 8× stock solutions of PMA and ionomycin in Yssels (for final concentrations of 0.5 ng/ml PMA and 0.1 μM ionomycin, both from Calbiochem). Cells were incubated at 37° C. for 24 hours before 100 μL supernatants were harvested for quantification of IL-2 by ELISA using Human IL-2 Duoset ELISA Kit from R and D Systems, Cat. #DY202E.
Take `CCc1nnnn1-c1cc(Nc2ncc(F)c(NC3CC(C)(C)NC(C)(C)C3)n2)ccc1OC(F)F` [III-67, N2-(4-(difluoromethoxy)-3-(5-ethyl-1H-tetrazol-1-yl)phenyl)-5-fluoro-N4-(2,2,6,6-tetramethylpiperidin-4-yl)pyrimidine-2,4-diamine]: the IC50 fell in the range of 250 to 500 nM.
Still for that read-out and setting: the value for `Cc1nnnn1-c1cc(Nc2ncc(F)c(NC3CC(C)(C)N(C)C(C)(C)C3)n2)ccc1F` [Compound I-9, 5-fluoro-N2-(4-fluoro-3-(5-methyl-1H-tetrazol-1-yl)phenyl)-N4-(1,2,2,6,6-pentamethylpiperidin-4-yl)pyrimidine-2,4-diamine] was less than 250 nM.
Turning to `CC1(C)CC(Nc2nc(Nc3ccc(OC4CCN(CC(F)(F)F)CC4)c(OC(F)F)c3)ncc2F)CC(C)(C)N1` [Compound I-144, N2-(4-(1-(2,2,2-trifluoroethyl)piperidin-4-yloxy)-3-(difluoromethoxy)phenyl)-5-fluoro-N4-(2,2,6,6-tetramethylpiperidin-4-yl)pyrimidine-2,4-diamine], the IC50 was 500 to 1000 nM.
Consider `CN1C(C)(C)CC(Nc2nc(Nc3ccc(OC4CCOCC4)c(-c4nnnn4C)c3)ncc2F)CC1(C)C` [III-125, 5-fluoro-N2-(3-(1-methyl-1H-tetrazol-5-yl)-4-(tetrahydro-2H-pyran-4-yloxy)phenyl)-N4-(1,2,2,6,6-pentamethylpiperidin-4-yl)pyrimidine-2,4-diamine], for which the 50% inhibitory concentration (IC50) fell in the range of 250 to 500 nM.
With `CN1C(C)(C)CC(Nc2nc(Nc3cc(F)c(OC4CCN(CCOCc5ccccc5)CC4)c(F)c3)ncc2F)CC1(C)C` [III-56, N2-(4-(1-(2-(benzyloxy)ethyl)piperidin-4-yloxy)-3,5-difluorophenyl)-5-fluoro-N4-(1,2,2,6,6-pentamethylpiperidin-4-yl)pyrimidine-2,4-diamine], the IC50 is 500 to 1000 nM.
Still for that read-out and setting: the value for `Cc1ccc(C)n1-c1cc(Nc2ncc(F)c(NC3CC(C)(C)N(C)C(C)(C)C3)n2)ccc1OC(C)C` [Compound I-15, N2-(4-isopropyloxy-3-(2,5-dimethyl-1H-pyrrol-1-yl)phenyl)-5-fluoro-N4-(1,2,2,6,6-pentamethylpiperidin-4-yl)pyrimidine-2,4-diamine] was 500 to 1000 nM.
Consider `CC1(C)CC(Nc2nc(Nc3ccc(O[C@H]4CCOC4)c(OC(F)F)c3)ncc2F)CC(C)(C)N1` [III-100, (S)—N2-(3-(difluoromethoxy)-4-(tetrahydrofuran-3-yloxy)phenyl)-5-fluoro-N4-(2,2,6,6-tetramethylpiperidin-4-yl)pyrimidine-2,4-diamine], for which the IC50 was 250 to 500 nM.
For `CC(C)N1CCCC(Oc2ccc(Nc3ncc(F)c(NC4CC(C)(C)NC(C)(C)C4)n3)cc2OC(F)F)CC1` (stereo not drawn) [III-40, N2-(3-(difluoromethoxy)-4-(1-isopropylazepan-4-yloxy)phenyl)-5-fluoro-N4-(2,2,6,6-tetramethylpiperidin-4-yl)pyrimidine-2,4-diamine], the IC50 was in the range of 250 to 500 nM.
As for `CN1C(C)(C)CC(Nc2nc(Nc3ccc(OC4CCN(CC(N)=O)CC4)c(F)c3)ncc2F)CC1(C)C` [III-33, 2-(4-(2-Fluoro-4-(5-fluoro-4-(1,2,2,6,6-pentamethylpiperidin-4-ylamino)pyrimidin-2-ylamino)phenoxy)piperidin-1-yl)acetamide], the IC50 is greater than 1000 nM.
Consider `CN1C(C)(C)CC(Nc2nc(Nc3cc(C#N)cc(-c4nnnn4C)c3)ncc2F)CC1(C)C` [III-144, 3-(5-fluoro-4-(1,2,2,6,6-pentamethylpiperidin-4-ylamino)pyrimidin-2-ylamino)-5-(1-methyl-1H-tetrazol-5-yl)benzonitrile], for which the IC50 was less than 250 nM.
As to `CC1CC(Nc2nc(Nc3cccc(-n4cnnn4)c3)ncc2F)CC(C)N1C1CC1` (stereo not drawn) [III-5, N^2-(3-(1H-tetrazol-1-yl)phenyl)-N4-(1-cyclopropyl-2,6-dimethylpiperidin-4-yl)-5-fluoropyrimidine-2,4-diamine], the IC50 was in the range of 250 to 500 nM.
`CC1(C)CC(Nc2nc(Nc3ccc(OCCN4CCCC4=O)c(C(F)(F)F)c3)ncc2F)CC(C)(C)N1` [Compound I-57, 1-(2-(4-(4-(2,2,6,6-tetramethylpiperidin-4-ylamino)-5-fluoropyrimidin-2-ylamino)-2-(trifluoromethyl)phenoxy)ethyl)pyrrolidin-2-one]: the IC50 was greater than 1000 nM.
As for `CC(=O)N1CCC(Oc2ccc(Nc3ncc(F)c(NC4CC(C)(C)NC(C)(C)C4)n3)cc2OC(F)F)CC1` [III-44, 1-(4-(2-(difluoromethoxy)-4-(5-fluoro-4-(2,2,6,6-tetramethylpiperidin-4-ylamino)pyrimidin-2-ylamino)phenoxy)piperidin-1-yl)ethanone], the IC50 was in the range of 500 to 1000 nM.
Same read-out and setting: the value for `CN1C(C)(C)CC(Nc2nc(Nc3ccc(Oc4cccnc4)c(C(F)(F)F)c3)ncc2F)CC1(C)C` [Compound I-61, 5-fluoro-N2-(3-(trifluoromethyl)-4-(pyridin-3-yloxy)phenyl)-N4-(1,2,2,6,6-pentamethylpiperidin-4-yl)pyrimidine-2,4-diamine] was 500 to 1000 nM; that for `CN1C(C)(C)CC(Nc2nc(Nc3ccc(OCCN4CCCC4)c(OC(F)F)c3)ncc2F)CC1(C)C` [Compound I-46, N2-(4-(2-(pyrrolidin-1-yl)ethoxy)-3-(difluoromethoxy)phenyl)-5-fluoro-N4-(1,2,2,6,6-pentamethylpiperidin-4-yl)pyrimidine-2,4-diamine] was less than 250 nM.
For `CC(=O)N1CCCC(Oc2c(F)cc(Nc3ncc(F)c(NC4CC(C)(C)NC(C)(C)C4)n3)cc2F)CC1` (stereo not drawn) [III-82, 1-(4-(2,6-difluoro-4-(5-fluoro-4-(2,2,6,6-tetramethylpiperidin-4-ylamino)pyrimidin-2-ylamino)phenoxy)azepan-1-yl)ethanone], the IC50 is greater than 1000 nM.
Take `Cn1nnnc1-c1cc(Nc2ncc(F)c(NC3CC(C)(C)NC(C)(C)C3)n2)cc(OC2COC2)c1` [III-145, 5-fluoro-N2-(3-(1-methyl-1H-tetrazol-5-yl)-5-(oxetan-3-yloxy)phenyl)-N4-(2,2,6,6-tetramethylpiperidin-4-yl)pyrimidine-2,4-diamine]: the IC50 was greater than 1000 nM.

The same test, now with this note: human primary T cells stimulated with anti-CD3 + anti-CD28, 24 hours.
Take `CC1(C)CC(Nc2nc(Nc3ccc(F)c(-n4cnnn4)c3)ncc2C(N)=O)CC(C)(C)N1` [Compound I-67, 5-aminocarbonyl-N2-[4-fluoro-3-(1H-tetrazol-1-yl)]phenyl-N4-(2,2,6,6-tetramethylpiperidin-4-yl)-2,4-pyrimidinediamine]: the 50% inhibitory concentration (IC50) was greater than 1000 nM.
Turning to `CC1(C)CC(Nc2nc(Nc3ccc4c(c3)OCCO4)ncc2F)CC(C)(C)N1` [II-10, N2-(3,4-Ethylenedioxy)phenyl-5-fluoro-N4-(2,2,6,6-tetramethylpiperidin-4-yl)-2,4-pyrimidinediamine], the half-inhibitory concentration (IC50) is greater than 1000 nM.
Same read-out and setting: then `CC(C)N1CCC(Oc2ccc(Nc3ncc(F)c(NC4CC(C)(C)N(C)C(C)(C)C4)n3)cc2OC(F)F)C(F)C1` (stereo not drawn) [III-105, N2-(3-(difluoromethoxy)-4-(3-fluoro-1-isopropylpiperidin-4-yloxy)phenyl)-5-fluoro-N4-(1,2,2,6,6-pentamethylpiperidin-4-yl)pyrimidine-2,4-diamine], with less than 250 nM; and `CCc1nnnn1-c1cc(Nc2ncc(C#N)c(NC3CC(C)(C)NC(C)(C)C3)n2)ccc1OC(F)F` [Compound I-84, 5-cyano-N2-[4-difluoromethoxy-3-(5-ethyl-1H-tetrazol-1-yl)]phenyl-N4-(2,2,6,6-tetramethylpiperidin-4-yl)-2,4-pyrimidinediamine], with greater than 1000 nM.

By IC50 is commonly meant the midpoint of a concentration-inhibition curve.

Values taken from patent publication US9149475B2, “Protein kinase C inhibitors and uses thereof” (Rigel Pharmaceuticals, Inc., priority 2009, dated 2015).
